# Experimental data: the NIST ThermoML archive (doi:10.1016/j.jct.2015.03.015)
# Numbers after ± are expanded uncertainties.
# Details: Crystal, Transpiration method
vapor or sublimation pressure (424 K) [kPa],vapor or sublimation pressure (434.1 K) [kPa],vapor or sublimation pressure (440 K) [kPa],vapor or sublimation pressure (446 K) [kPa],vapor or sublimation pressure (451.9 K) [kPa],vapor or sublimation pressure (457.7 K) [kPa],vapor or sublimation pressure (462.6 K) [kPa],vapor or sublimation pressure (467.4 K) [kPa],vapor or sublimation pressure (472.4 K) [kPa],vapor or sublimation pressure (426.4 K) [kPa],vapor or sublimation pressure (430.5 K) [kPa],vapor or sublimation pressure (436.2 K) [kPa],vapor or sublimation pressure (440.5 K) [kPa],vapor or sublimation pressure (447.6 K) [kPa],vapor or sublimation pressure (450.8 K) [kPa],vapor or sublimation pressure (456.5 K) [kPa],vapor or sublimation pressure (460.6 K) [kPa],vapor or sublimation pressure (464.8 K) [kPa],vapor or sublimation pressure (468.9 K) [kPa],vapor or sublimation pressure (472.3 K) [kPa],Compound
0.00022 ± 2e-05,0.00051 ± 4e-05,0.00086 ± 7e-05,0.00135 ± 0.0001,0.00212 ± 0.00015,0.00317 ± 0.0002,0.0047 ± 0.0003,0.00673 ± 0.00046,0.00905 ± 0.0006,–,–,–,–,–,–,–,–,–,–,–,"O=c1cc[nH]c(=O)[nH]1 [2,4(1H,3H)-pyrimidinedione]"
–,–,–,–,–,–,–,–,–,0.00061 ± 5e-05,0.00086 ± 7e-05,0.00134 ± 0.0001,0.00183 ± 0.00012,0.00314 ± 0.0002,0.00397 ± 0.00025,0.00601 ± 0.00043,0.00813 ± 0.00056,0.01106 ± 0.00073,0.01464 ± 0.00095,0.01767 ± 0.0011,Cc1c[nH]c(=O)[nH]c1=O [thymine]
